Measured values reported in patent publication EP1143981B1, “USE OF N-GLYCOLNEURAMINIC ACID AND ITS DERIVATIVES FOR THE MANUFACTURE OF A MEDICAMENT FOR THE TREATMENT OF HIV INFECTIONS” (Glukor, Inc., priority 1998, dated 2000).
Like-named read-outs stand apart in the source and are kept apart here.

Tested on: HIV-1 MN
Format: cell-based
Method: Test groups included uninfected PBMCs, infected PBMCs with no N-glycolylneuraminic acid, and infected PBMCs plus N-glycolylneuraminic acid. […] Excess virus was removed by washing the cells with PBS one time then the cells were exposed to N-glycolylneuraminic acid. P24 output was measured using the DuPont P24 assay kit (optical density (OD) in Table 15). Syncytia formation was examined as well as cytopathic effects (CPE). […] Sample #7 (p24 123x10^6 pg HIV-1P24/ml) was excluded from the mean P24 output calculation due to a sampling error. […]

SMILES: O=C(CO)N[C@H]1[C@H]([C@H](O)[C@H](O)CO)OC(O)(C(=O)O)C[C@@H]1O (some centres unmarked) [N-glycolylneuraminic acid]
- CPE (Neu5Gc dilution 1:2): negative
- O.D. (Neu5Gc dilution 1:2): 0.017
- P-24 (Neu5Gc dilution 1:2): 320 picograms HIV-1 p24 per mL
- Syncytia (Neu5Gc dilution 1:2): negative
- CPE (Neu5Gc dilution 1:4): negative
- O.D. (Neu5Gc dilution 1:4): 0.043
- P-24 (Neu5Gc dilution 1:4): 922 picograms HIV-1 p24 per mL
- Syncytia (Neu5Gc dilution 1:4): negative
- CPE (Neu5Gc dilution 1:8): negative
- O.D. (Neu5Gc dilution 1:8): 0.057
- P-24 (Neu5Gc dilution 1:8): 871 picograms HIV-1 p24 per mL
- Syncytia (Neu5Gc dilution 1:8): negative
- CPE (Neu5Gc dilution 1:16): negative
- O.D. (Neu5Gc dilution 1:16): 0.061
- P-24 (Neu5Gc dilution 1:16): 824 picograms HIV-1 p24 per mL
- Syncytia (Neu5Gc dilution 1:16): negative
- CPE (Neu5Gc dilution 1:32): negative
- O.D. (Neu5Gc dilution 1:32): 0.012
- P-24 (Neu5Gc dilution 1:32): 265 picograms HIV-1 p24 per mL
- Syncytia (Neu5Gc dilution 1:32): negative
- CPE (Neu5Gc dilution 1:64): negative
- O.D. (Neu5Gc dilution 1:64): 0.041
- P-24 (Neu5Gc dilution 1:64): 865 picograms HIV-1 p24 per mL
- Syncytia (Neu5Gc dilution 1:64): negative
- cell viability (human, pbmcs): 25%
- Mean p24 output (samples treated with N-glycolylneuraminic acid (corrected for dilution factor)): 624± 326 pg HIV-1P24/ml
